# Results published in patent publication US20050061314A1, “Metered dose inhaler” (Vactura Limited, priority 2001, published 2005).
# How the values were obtained:
# [1] = tested on: mice; conditions: cited from earlier work
# [2] = mouse brain; cited from earlier work
# [3] = tested on: GABA; conditions: cited from earlier work
# [4] = tested on: effect of THC; conditions: cited from earlier work
# [5] = tested on: cataleptic effect of THC; conditions: mice; cited from earlier work
# [6] = tested on: asthmatic patients; conditions: pMDI with CFC propellant and ethanol; cited from earlier work
# [7] = Andersen Cascade Impactor aerosol characterisation of pMDI solution formulations; assay type: physicochemical
# Description: The FPD, which provides a direct measurement of the aerosol particles considered suitable for deposition and retention in the respiratory tract, is calculated as the mass of the particles deposited from stage 3 to the filter (particles with an aerodynamic diameter less than 4.7 μm) in an Andersen Cascade Impactor.
# The aerodynamic particle size distribution of an aerosol formulation is characterised using a Multistage Cascade Impactor according to the procedure described in European Pharmacopoeia 2nd edition, 1995, part V.5.9.1, pages 15-17. Generally an Andersen Cascade Impactor (ACI) is utilised. Deposition of the drug on each ACI plate is determined by high performance liquid chromatography (HPLC). Mean metered dose is calculated from the cumulative deposition in the actuator and ACI stages; mean delivered dose is calculated from the cumulative deposition in the ACI. Mean respirable dose (fine particle dose, i.e. FPD) which provides a direct measurement of the aerosol particles is considered suitable for deposition and retention in the respiratory tract, is obtained from the deposition on Stage 3 (S3) to filter (AF) corresponding to particles with an aerodynamic diameter ≦4.7 μm. Smaller particles, with an aerodynamic diameter ≦1.1 μm correspond to the fraction obtained from the deposition on Stage 6 to filter.
# The FPD can also be expressed as a percentage of the ex-valve dose or recovered dose (i.e. Fine Particle Fraction: FPF≦4.7 μm or FPF≦1.1 μm). Shot weights are measured by weighing each canister before and after the actuation.
# The experiments of example 2 consisted of discharging Δ^9-THC (THC)/ethanol/glycerol/HFA 134a and Δ^9-THC hemisuccinate (THC-HS)/ethanol/glycerol/HFA 134a formulations through actuator inserts housed in a modified Bespak actuator (630 series) into an Andersen Cascade Impactor operated at 28.3 L min^−1. Two product strengths, 100 μg/dose and 1000 μg/dose, were used in combination with 5% or 10% w/w ethanol, and 0.1% or 0.3% glycerol. Experiments were conducted using 0.14 and 0.16 mm diameter, 0.60 mm long, laser drilled actuator orifices in accordance with the invention in its preferred aspects and a third party supplied actuator with an orifice diameter of 0.22 mm. The quantities of drug deposited on the actuator, the throat and the stages of the impactor were measured. The delivered dose, the mass median aerodynamic diameter (MMAD), the geometric standard deviation (GSD), the fine particle dose ≦4.7 μm (FPD≦4.7) and the fine particle dose ≦1.1 μm (FPD≦1.1) were calculated from the results of these experiments and are set out in tables 3 and 4. The FPDs were also expressed as a % fraction of the ex-valve dose (FPF≦4.7, FPF≦1.1). Shot weight was measured by weighing the pMDI before and after discharge. These latter parameters are also set out in tables 3 and 4 along with other results of these experiments.
# [8] = 100 μg, 5% Ethanol, 0.1% Glycerol, HFA134a, 50 μl, Actuator 0.14 mm
# [9] = 1000 μg, 5% Ethanol, 0.1% Glycerol, HFA134a, 50 μl, Actuator 0.14 mm
# [10] = 100 μg/50 μl/134a, 5% Et, 0.1% Gly, 0.14 mm Aluminium insert (4b)
# [11] = 100 μg/50 μl/134a, 5% Et, 0.1% Gly, 0.16 mm Al insert (11A)
# [12] = 100 μg/50 μl/134a, 5% Et, 0.1% Gly, 0.22 mm Bespak Actuator
# [13] = 100 μg/50 μl/134a, 10% Et, 0.3% Gly, 0.14 mm Aluminium insert (4b)
smiles,measurement,setting,value
"CCCCCc1cc(O)c2c(c1)OC(C)(CCC=C(C)C)C=C2 (stereo not drawn) [CBC, cannabichromene]",effect on LD50 of THC,[1],does lower LD50 of THC
"C=C(C)[C@@H]1CCC(C)=C[C@H]1c1c(O)cc(CCCCC)cc1O [CBD, cannabidiol]",effect on THC levels in the brain,[2],increases THC levels
"CCCCCc1cc(O)c(C/C=C(\C)CCC=C(C)C)c(O)c1 [CBG, cannabigerol]",GABA inhibitor potency relative to THC,[3],more potent GABA inhibitor than THC
"CCCCCc1cc(O)c2c(c1)OC(C)(C)c1ccc(C)cc1-2 [CBN, cannabinol]",effect on the effect of THC in man,[4],potentates the effect of THC
same,effect on cataleptic effect of THC,[5],antagonises cataleptic effect of THC
"CCCCCc1cc(O)c2c(c1)OC(C)(C)[C@@H]1CCC(C)=C[C@@H]21 [THC, Δ^9-tetrahydrocannabinol, reference compound]",bronchodilatory effect,[6],bronchodilatory effect
same,Delivered,[7]; [8],108.2 µg
same,FPD<1.1 μm,[7]; [8],42.01 µg
same,FPD<3.3 μm,[7]; [8],98.02 µg
same,FPD<4.7 μm,[7]; [8],101.71 µg
same,FPF<1.1 μm,[7]; [8],36.63%
same,FPF<3.3 μm,[7]; [8],85.46%
same,FPF<4.7,[7]; [8],88.67%
same,GSD,[7]; [8],1.8
same,MMAD,[7]; [8],1.3 μm
same,Recovered,[7]; [8],114.7 µg
same,Shot Weight ± SD,[7]; [8],62.4 ± 0.8 mg
same,Delivered,[7]; [9],1044.5 µg
same,FPD<1.1 μm,[7]; [9],129.7 µg
same,FPD<3.3 μm,[7]; [9],735.5 µg
same,FPD<4.7 μm,[7]; [9],907.14 µg
same,FPF<1.1 μm,[7]; [9],11.69%
same,FPF<3.3 μm,[7]; [9],66.32%
same,FPF<4.7,[7]; [9],81.79%
same,GSD,[7]; [9],1.7
same,MMAD,[7]; [9],2.3 μm
same,Recovered,[7]; [9],1109.1 µg
same,Shot Weight ± SD,[7]; [9],63.8 ± 0.4 mg
"CCCCCc1cc(OC(=O)CCC(=O)O)c2c(c1)OC(C)(C)[C@@H]1CCC(C)=C[C@@H]21 [THC-HS, Δ^9-THC hemisuccinate]",Delivered,[7]; [8],97.30 µg
same,FPD<1.1 μm,[7]; [8],37.56 µg
same,FPD<3.3 μm,[7]; [8],89.66 µg
same,FPD<4.7 μm,[7]; [8],91.94 µg
same,FPF<1.1 μm,[7]; [8],36.86%
same,FPF<3.3 μm,[7]; [8],87.99%
same,FPF<4.7,[7]; [8],90.23%
same,GSD,[7]; [8],1.7
same,MMAD,[7]; [8],1.3 μm
same,Recovered,[7]; [8],101.90 µg
same,Shot Weight ± SD,[7]; [8],64.7 ± 0.5 mg
same,Actuator,[7]; [10],4.57 µg
same,Delivered,[7]; [10],97.30 µg
same,Dose < 1.1 μm,[7]; [10],37.56 µg
same,FPD<3.3 μm,[7]; [10],89.66 µg
same,FPD<4.7 μm,[7]; [10],91.94 µg
same,FPF<1.1 μm,[7]; [10],36.86%
same,FPF<3.3 μm,[7]; [10],87.99%
same,FPF<4.7,[7]; [10],90.23%
same,GSD,[7]; [10],1.7
same,MMAD,[7]; [10],1.3 μm
same,Recovered,[7]; [10],101.90 µg
same,Shot Weight ± SD,[7]; [10],64.7 ± 0.5 mg
same,Throat,[7]; [10],3.51 µg
same,Actuator,[7]; [11],4.88 µg
same,Delivered,[7]; [11],93.40 µg
same,Dose < 1.1 μm,[7]; [11],28.19 µg
same,FPD<3.3 μm,[7]; [11],80.07 µg
same,FPD<4.7 μm,[7]; [11],83.56 µg
same,FPF<1.1 μm,[7]; [11],28.59%
same,FPF<3.3 μm,[7]; [11],81.25%
same,FPF<4.7,[7]; [11],84.79%
same,GSD,[7]; [11],1.8
same,MMAD,[7]; [11],1.4 μm
same,Recovered,[7]; [11],98.55 µg
same,Shot Weight ± SD,[7]; [11],62.0 ± 0.6 mg
same,Throat,[7]; [11],7.52 µg
same,Actuator,[7]; [12],7.71 µg
same,Delivered,[7]; [12],98.00 µg
same,Dose < 1.1 μm,[7]; [12],24.30 µg
same,FPD<3.3 μm,[7]; [12],77.43 µg
same,FPD<4.7 μm,[7]; [12],82.02 µg
same,FPF<1.1 μm,[7]; [12],22.99%
same,FPF<3.3 μm,[7]; [12],73.25%
same,FPF<4.7,[7]; [12],77.60%
same,GSD,[7]; [12],1.7
same,MMAD,[7]; [12],1.5 μm
same,Recovered,[7]; [12],105.70 µg
same,Shot Weight ± SD,[7]; [12],62.6 ± 0.4 mg
same,Throat,[7]; [12],13.82 µg
same,Actuator,[7]; [13],4.35 µg
same,Delivered,[7]; [13],79.50 µg
same,Dose < 1.1 μm,[7]; [13],14.21 µg
same,FPD<3.3 μm,[7]; [13],65.50 µg
same,FPD<4.7 μm,[7]; [13],70.93 µg
same,FPF<1.1 μm,[7]; [13],16.96%
same,FPF<3.3 μm,[7]; [13],78.16%
same,FPF<4.7,[7]; [13],84.64%
same,GSD,[7]; [13],1.7
same,MMAD,[7]; [13],1.7 μm
same,Recovered,[7]; [13],83.80 µg
same,Shot Weight ± SD,[7]; [13],60.7 ± 0.6 mg
same,Throat,[7]; [13],5.93 µg
same,Delivered,[7]; [9],834.3 µg
same,FPD<1.1 μm,[7]; [9],138.04 µg
same,FPD<3.3 μm,[7]; [9],676.16 µg
same,FPD<4.7 μm,[7]; [9],771.92 µg
same,FPF<1.1 μm,[7]; [9],15.83%
same,FPF<3.3 μm,[7]; [9],77.56%
same,FPF<4.7,[7]; [9],88.54%
same,GSD,[7]; [9],1.7
same,MMAD,[7]; [9],1.9 μm
same,Recovered,[7]; [9],871.8 µg
same,Shot Weight ± SD,[7]; [9],64.7 ± 0.6 mg
